Assay results published in patent publication US20160281050A1, “METHODS FOR TREATING A CULTURE OF HAEMATOCOCCUS PLUVIALIS FOR CONTAMINATION USING SALT AND HYDROGEN PEROXIDE” (HELIAE DEVELOPMENT LLC, priority 2015, published 2016).

Tested on: Haematococcus pluvialis (Strain 2)
Assay: % cell lysis, culture dry weight and % carotenoid by UV method in 230 L reactors, salt treatment (Example 12)
Format: cell-based
Protocol: This test was done side by side in flasks (0.1 L) and in reactors located in a greenhouse operating in conditions: reactor volume of 230 L; Daily PAR of 20 mol m^−2 d^−1; pH (not measured); and paddlewheel speed of 21 RPM. […] The flask cultures were mixed by shaking at 140 rpm and received 300-400 μmol/m^2 s of photosynthetically active radiation (PAR) in 12 hour light cycles and constant supply of 2.5% CO2. The motility of the culture was monitored by visual observation under a microscope. […] Nine 230 L reactors were also seeded with culture from bioreactor #2410 on the same day as the flasks and brought to 2 ppt concentration of salt. Once motility of the cells was reduced to <10% (day 3 of culture for flasks and day 2 for 230 L reactors) the level of salt was elevated to a point between 4-18 ppt and compared to the culture in two reactors remaining at 2 ppt salt. Flasks and 230 L reactors were monitored for percentage of cell lysis via visual observation under a microscope, culture dry weight (biomass accumulation in g/L), and percentage of chytrid infection via visual observation under a microscope. Carotenoid production, a proxy for determining astaxanthin, was quantified every other day of culture in the 230 L reactors using the UV method.

[Cl-].[Na+] [NaCl, sodium chloride]
Culture Dry Weight in 230L reactors (NaCl 2 ppt (1st 2 ppt column), time 12 d): 0.187 g/L | Culture Dry Weight in 230L reactors (NaCl 2 ppt, time 0 d): 0.043 g/L | Culture Dry Weight in 230L reactors (NaCl 2 ppt, time 1 d): 0.048 g/L | Culture Dry Weight in 230L reactors (NaCl 2 ppt, time 2 d): 0.072 g/L | Culture Dry Weight in 230L reactors (NaCl 2 ppt, time 4 d): 0.113 g/L | Culture Dry Weight in 230L reactors (NaCl 2 ppt, time 5 d): 0.125 g/L | Culture Dry Weight in 230L reactors (NaCl 2 ppt, time 6 d): 0.130 g/L | Culture Dry Weight in 230L reactors (NaCl 2 ppt, time 7 d): 0.150 g/L | Culture Dry Weight in 230L reactors (NaCl 2 ppt, time 8 d): 0.170 g/L | Culture Dry Weight in 230L reactors (NaCl 2 ppt, time 9 d): 0.218 g/L | Culture Dry Weight in 230L reactors (NaCl 2 ppt, time 10 d): 0.150 g/L | Culture Dry Weight in 230L reactors (NaCl 4 ppt, time 0 d): 0.037 g/L | Culture Dry Weight in 230L reactors (NaCl 4 ppt, time 1 d): 0.063 g/L | Culture Dry Weight in 230L reactors (NaCl 4 ppt, time 2 d): 0.080 g/L | Culture Dry Weight in 230L reactors (NaCl 4 ppt, time 4 d): 0.115 g/L | Culture Dry Weight in 230L reactors (NaCl 4 ppt, time 5 d): 0.120 g/L | Culture Dry Weight in 230L reactors (NaCl 4 ppt, time 6 d): 0.125 g/L | Culture Dry Weight in 230L reactors (NaCl 4 ppt, time 7 d): 0.148 g/L | Culture Dry Weight in 230L reactors (NaCl 4 ppt, time 8 d): 0.153 g/L | Culture Dry Weight in 230L reactors (NaCl 4 ppt, time 9 d): 0.198 g/L | Culture Dry Weight in 230L reactors (NaCl 4 ppt, time 10 d): 0.143 g/L | Culture Dry Weight in 230L reactors (NaCl 4 ppt, time 11 d): 0.148 g/L | Culture Dry Weight in 230L reactors (NaCl 4 ppt, time 12 d): 0.150 g/L | Culture Dry Weight in 230L reactors (NaCl 5 ppt, time 0 d): 0.040 g/L | Culture Dry Weight in 230L reactors (NaCl 5 ppt, time 1 d): 0.070 g/L | Culture Dry Weight in 230L reactors (NaCl 5 ppt, time 4 d): 0.162 g/L | Culture Dry Weight in 230L reactors (NaCl 5 ppt, time 5 d): 0.185 g/L | Culture Dry Weight in 230L reactors (NaCl 5 ppt, time 6 d): 0.213 g/L | Culture Dry Weight in 230L reactors (NaCl 5 ppt, time 7 d): 0.223 g/L | Culture Dry Weight in 230L reactors (NaCl 5 ppt, time 8 d): 0.270 g/L | Culture Dry Weight in 230L reactors (NaCl 5 ppt, time 9 d): 0.293 g/L | Culture Dry Weight in 230L reactors (NaCl 5 ppt, time 10 d): 0.265 g/L | Culture Dry Weight in 230L reactors (NaCl 5 ppt, time 11 d): 0.250 g/L | Culture Dry Weight in 230L reactors (NaCl 5 ppt, time 12 d): 0.280 g/L | Culture Dry Weight in 230L reactors (NaCl 6 ppt, time 0 d): 0.040 g/L | Culture Dry Weight in 230L reactors (NaCl 6 ppt, time 1 d): 0.058 g/L | Culture Dry Weight in 230L reactors (NaCl 6 ppt, time 4 d): 0.140 g/L | Culture Dry Weight in 230L reactors (NaCl 6 ppt, time 5 d): 0.178 g/L | Culture Dry Weight in 230L reactors (NaCl 6 ppt, time 6 d): 0.198 g/L | Culture Dry Weight in 230L reactors (NaCl 6 ppt, time 7 d): 0.218 g/L | Culture Dry Weight in 230L reactors (NaCl 6 ppt, time 8 d): 0.260 g/L | Culture Dry Weight in 230L reactors (NaCl 6 ppt, time 9 d): 0.260 g/L | Culture Dry Weight in 230L reactors (NaCl 6 ppt, time 10 d): 0.250 g/L | Culture Dry Weight in 230L reactors (NaCl 6 ppt, time 11 d): 0.282 g/L | Culture Dry Weight in 230L reactors (NaCl 6 ppt, time 12 d): 0.323 g/L | Culture Dry Weight in 230L reactors (NaCl 7 ppt, time 0 d): 0.035 g/L | Culture Dry Weight in 230L reactors (NaCl 7 ppt, time 1 d): 0.048 g/L | Culture Dry Weight in 230L reactors (NaCl 7 ppt, time 4 d): 0.145 g/L | Culture Dry Weight in 230L reactors (NaCl 7 ppt, time 5 d): 0.150 g/L | Culture Dry Weight in 230L reactors (NaCl 7 ppt, time 6 d): 0.170 g/L | Culture Dry Weight in 230L reactors (NaCl 7 ppt, time 7 d): 0.198 g/L | Culture Dry Weight in 230L reactors (NaCl 7 ppt, time 8 d): 0.260 g/L | Culture Dry Weight in 230L reactors (NaCl 7 ppt, time 9 d): 0.148 g/L | Culture Dry Weight in 230L reactors (NaCl 7 ppt, time 10 d): 0.205 g/L | Culture Dry Weight in 230L reactors (NaCl 7 ppt, time 11 d): 0.218 g/L | Culture Dry Weight in 230L reactors (NaCl 7 ppt, time 12 d): 0.245 g/L | Culture Dry Weight in 230L reactors (NaCl 8 ppt, time 0 d): 0.018 g/L | Culture Dry Weight in 230L reactors (NaCl 8 ppt, time 1 d): 0.057 g/L | Culture Dry Weight in 230L reactors (NaCl 8 ppt, time 4 d): 0.145 g/L | Culture Dry Weight in 230L reactors (NaCl 8 ppt, time 5 d): 0.168 g/L | Culture Dry Weight in 230L reactors (NaCl 8 ppt, time 6 d): 0.193 g/L | Culture Dry Weight in 230L reactors (NaCl 8 ppt, time 7 d): 0.205 g/L | Culture Dry Weight in 230L reactors (NaCl 8 ppt, time 8 d): 0.237 g/L | Culture Dry Weight in 230L reactors (NaCl 8 ppt, time 9 d): 0.218 g/L | Culture Dry Weight in 230L reactors (NaCl 8 ppt, time 10 d): 0.257 g/L | Culture Dry Weight in 230L reactors (NaCl 8 ppt, time 11 d): 0.220 g/L | Culture Dry Weight in 230L reactors (NaCl 8 ppt, time 12 d): 0.263 g/L | Culture Dry Weight in 230L reactors (NaCl 10 ppt, time 0 d): 0.045 g/L | Culture Dry Weight in 230L reactors (NaCl 10 ppt, time 1 d): 0.060 g/L | Culture Dry Weight in 230L reactors (NaCl 10 ppt, time 4 d): 0.120 g/L | Culture Dry Weight in 230L reactors (NaCl 10 ppt, time 5 d): 0.130 g/L | Culture Dry Weight in 230L reactors (NaCl 10 ppt, time 6 d): 0.168 g/L | Culture Dry Weight in 230L reactors (NaCl 10 ppt, time 7 d): 0.145 g/L | Culture Dry Weight in 230L reactors (NaCl 10 ppt, time 8 d): 0.145 g/L | Culture Dry Weight in 230L reactors (NaCl 10 ppt, time 9 d): 0.160 g/L | Culture Dry Weight in 230L reactors (NaCl 10 ppt, time 10 d): 0.173 g/L | Culture Dry Weight in 230L reactors (NaCl 10 ppt, time 11 d): 0.145 g/L | Culture Dry Weight in 230L reactors (NaCl 10 ppt, time 12 d): 0.168 g/L | Culture Dry Weight in 230L reactors (NaCl 18 ppt, time 0 d): 0.035 g/L | Culture Dry Weight in 230L reactors (NaCl 18 ppt, time 1 d): 0.052 g/L | Culture Dry Weight in 230L reactors (NaCl 18 ppt, time 4 d): 0.135 g/L | Culture Dry Weight in 230L reactors (NaCl 18 ppt, time 5 d): 0.173 g/L | Culture Dry Weight in 230L reactors (NaCl 18 ppt, time 6 d): 0.180 g/L | Culture Dry Weight in 230L reactors (NaCl 18 ppt, time 7 d): 0.165 g/L | Culture Dry Weight in 230L reactors (NaCl 18 ppt, time 8 d): 0.165 g/L | Culture Dry Weight in 230L reactors (NaCl 18 ppt, time 9 d): 0.175 g/L | Culture Dry Weight in 230L reactors (NaCl 18 ppt, time 10 d): 0.183 g/L | Culture Dry Weight in 230L reactors (NaCl 18 ppt, time 11 d): 0.200 g/L | Culture Dry Weight in 230L reactors (NaCl 18 ppt, time 12 d): 0.175 g/L
